Legend:
Format in all cases: in vivo
[1] = tested on: barnyardgrass (Echinochloa crus-galli); experiment: Test A preemergence, barnyardgrass; settings: 0 to 100 scale (0 no effect, 100 complete control)
Text: (§1) Test A Seeds of plant species selected from barnyardgrass (Echinochloa crus-galli), kochia (Kochia scoparia), ragweed (common ragweed, Ambrosia elatior), ryegrass, Italian (Lolium multiflorum), foxtail, giant (Setaria faberii), and pigweed (Amaranthus retroflexus), were planted into a blend of loam soil and sand and treated preemergence with a directed soil spray using test chemicals formulated in a non-phytotoxic solvent mixture which included a surfactant.
(§2) At the same time, plants selected from these weed species and also blackgrass (Alopecurus myosuroides), galium (catchweed bedstraw, Galium aparine), wheat (Triticum aestivum), and corn (Zea mays) were planted in pots containing the same blend of loam soil and sand and treated with postemergence applications of test chemicals formulated in the same manner. Plants ranged in height from 2 to 10 cm and were in the one- to two-leaf stage for the postemergence treatment. Treated plants and untreated controls were maintained in a greenhouse for approximately 10 days, after which time all treated plants were compared to untreated controls and visually evaluated for injury. Plant response ratings, summarized in Table A, are based on a 0 to 100 scale where 0 is no effect and 100 is complete control. A dash (-) response means no test result.

[2] = tested on: galium (catchweed bedstraw, Galium aparine); experiment: Test A postemergence, galium; settings: visual injury, 0 to 100 scale (0 no effect, 100 complete control), approximately 10 days
Text: as §1, §2

corn (Zea mays) = experiment: Test A postemergence, corn; settings: visual injury, 0 to 100 scale (0 no effect, 100 complete control), approximately 10 days
Text: as §1, §2

[3] = tested on: ryegrass, Italian (Lolium multiflorum); experiment: Test A preemergence, Italian ryegrass; settings: 0 to 100 scale (0 no effect, 100 complete control)
Text: as §1, §2

[4] = tested on: pigweed (Amaranthus retroflexus); experiment: Test A preemergence, pigweed; settings: 0 to 100 scale (0 no effect, 100 complete control)
Text: as §1, §2

[5] = tested on: ragweed (common ragweed, Ambrosia elatior); experiment: Test A postemergence, ragweed; settings: visual injury, 0 to 100 scale (0 no effect, 100 complete control), approximately 10 days
Text: as §1, §2

[6] = tested on: ryegrass, Italian (Lolium multiflorum); experiment: Test A postemergence, Italian ryegrass; settings: visual injury, 0 to 100 scale (0 no effect, 100 complete control), approximately 10 days
Text: as §1, §2

[7] = tested on: pigweed (Amaranthus retroflexus); experiment: Test A postemergence, pigweed; settings: visual injury, 0 to 100 scale (0 no effect, 100 complete control), approximately 10 days
Text: as §1, §2

[8] = tested on: ragweed (common ragweed, Ambrosia elatior); experiment: Test A preemergence, ragweed; settings: 0 to 100 scale (0 no effect, 100 complete control)
Text: as §1, §2

[9] = tested on: foxtail, giant (Setaria faberii); experiment: Test A preemergence, giant foxtail; settings: 0 to 100 scale (0 no effect, 100 complete control)
Text: as §1, §2

[10] = tested on: barnyardgrass (Echinochloa crus-galli); experiment: Test A postemergence, barnyardgrass; settings: visual injury, 0 to 100 scale (0 no effect, 100 complete control), approximately 10 days
Text: as §1, §2

kochia (Kochia scoparia) [11] = experiment: Test A preemergence, kochia; settings: 0 to 100 scale (0 no effect, 100 complete control)
Text: as §1, §2

kochia (Kochia scoparia) [12] = experiment: Test A postemergence, kochia; settings: visual injury, 0 to 100 scale (0 no effect, 100 complete control), approximately 10 days
Text: as §1, §2

[13] = tested on: wheat (Triticum aestivum); experiment: Test A postemergence, wheat; settings: visual injury, 0 to 100 scale (0 no effect, 100 complete control), approximately 10 days
Text: as §1, §2

[14] = tested on: blackgrass (Alopecurus myosuroides); experiment: Test A postemergence, blackgrass; settings: visual injury, 0 to 100 scale (0 no effect, 100 complete control), approximately 10 days
Text: as §1, §2

[15] = tested on: foxtail, giant (Setaria faberii); experiment: Test A postemergence, giant foxtail; settings: visual injury, 0 to 100 scale (0 no effect, 100 complete control), approximately 10 days
Text: as §1, §2

SMILES | Plant response rating, Barnyardgrass ([1]; 125 g ai/ha) | Plant response rating, Barnyardgrass ([1]; 500 g ai/ha) | Plant response rating, Galium ([2]; 125 g ai/ha) | Plant response rating, Galium ([2]; 500 g ai/ha) | Plant response rating, Corn (corn (Zea mays); 125 g ai/ha) | Plant response rating, Corn (corn (Zea mays); 500 g ai/ha) | Plant response rating, Ryegrass, Italian ([3]; 125 g ai/ha) | Plant response rating, Ryegrass, Italian ([3]; 500 g ai/ha) | Plant response rating, Pigweed ([4]; 125 g ai/ha) | Plant response rating, Pigweed ([4]; 500 g ai/ha) | Plant response rating, Ragweed ([5]; 125 g ai/ha) | Plant response rating, Ragweed ([5]; 500 g ai/ha) | Plant response rating, Ryegrass, Italian ([6]; 125 g ai/ha) | Plant response rating, Ryegrass, Italian ([6]; 500 g ai/ha) | Plant response rating, Pigweed ([7]; 125 g ai/ha) | Plant response rating, Pigweed ([7]; 500 g ai/ha) | Plant response rating, Ragweed ([8]; 125 g ai/ha) | Plant response rating, Ragweed ([8]; 500 g ai/ha) | Plant response rating, Foxtail, Giant ([9]; 125 g ai/ha) | Plant response rating, Foxtail, Giant ([9]; 500 g ai/ha) | other results
O=C1NCC(c2cccc(COc3ccccc3)c2)C1C(=O)Nc1ccc(F)c(F)c1F (stereo not drawn) [Compound 17] | 20 | 70 | 50 | 30 | 0 | 0 | 0 | 0 | 0 | 0 | 0 | 0 | 0 | 0 | 0 | 0 | 0 | 0 | 50 | 80 | Plant response rating, Barnyardgrass ([10]; 125 g ai/ha): 30; Plant response rating, Barnyardgrass ([10]; 500 g ai/ha): 40; Plant response rating, Kochia (kochia (Kochia scoparia) [11]; 125 g ai/ha): 0; Plant response rating, Kochia (kochia (Kochia scoparia) [11]; 500 g ai/ha): 30; Plant response rating, Kochia (kochia (Kochia scoparia) [12]; 125 g ai/ha): 0; Plant response rating, Kochia (kochia (Kochia scoparia) [12]; 500 g ai/ha): 0; Plant response rating, Wheat ([13]; 125 g ai/ha): 0; Plant response rating, Wheat ([13]; 500 g ai/ha): 0; Plant response rating, Blackgrass ([14]; 125 g ai/ha): 0; Plant response rating, Blackgrass ([14]; 500 g ai/ha): 0; Plant response rating, Foxtail, Giant ([15]; 125 g ai/ha): 30; Plant response rating, Foxtail, Giant ([15]; 500 g ai/ha): 40
O=C1NCC(c2cccc(COc3ccccc3)c2)C1C(=O)Nc1ccccc1Cl (stereo not drawn) [Compound 18] | 0 | 0 | 0 | 0 | 0 | 0 | 0 | 0 | 0 | 0 | 0 | 0 | 0 | 0 | 0 | 0 | 0 | 0 | 0 | 20 | Plant response rating, Barnyardgrass ([10]; 125 g ai/ha): 0; Plant response rating, Barnyardgrass ([10]; 500 g ai/ha): 20; Plant response rating, Kochia (kochia (Kochia scoparia) [11]; 125 g ai/ha): 0; Plant response rating, Kochia (kochia (Kochia scoparia) [11]; 500 g ai/ha): 0; Plant response rating, Kochia (kochia (Kochia scoparia) [12]; 125 g ai/ha): 0; Plant response rating, Kochia (kochia (Kochia scoparia) [12]; 500 g ai/ha): 0; Plant response rating, Wheat ([13]; 125 g ai/ha): 0; Plant response rating, Wheat ([13]; 500 g ai/ha): 0; Plant response rating, Blackgrass ([14]; 125 g ai/ha): 0; Plant response rating, Blackgrass ([14]; 500 g ai/ha): 0; Plant response rating, Foxtail, Giant ([15]; 125 g ai/ha): 0; Plant response rating, Foxtail, Giant ([15]; 500 g ai/ha): 0
O=C1NCC(c2cccc(COc3ccccc3)c2)C1C(=O)Nc1ccccc1F (stereo not drawn) [Compound 19] | 30 | 70 | 0 | 0 | 0 | 0 | 0 | 0 | 0 | 0 | 0 | 0 | 0 | 0 | 0 | 0 | 0 | 0 | 30 | 80 | Plant response rating, Barnyardgrass ([10]; 125 g ai/ha): 20; Plant response rating, Barnyardgrass ([10]; 500 g ai/ha): 50; Plant response rating, Kochia (kochia (Kochia scoparia) [11]; 125 g ai/ha): 0; Plant response rating, Kochia (kochia (Kochia scoparia) [11]; 500 g ai/ha): 40; Plant response rating, Kochia (kochia (Kochia scoparia) [12]; 125 g ai/ha): 0; Plant response rating, Kochia (kochia (Kochia scoparia) [12]; 500 g ai/ha): 0; Plant response rating, Wheat ([13]; 125 g ai/ha): 0; Plant response rating, Wheat ([13]; 500 g ai/ha): 0; Plant response rating, Blackgrass ([14]; 125 g ai/ha): 0; Plant response rating, Blackgrass ([14]; 500 g ai/ha): 0; Plant response rating, Foxtail, Giant ([15]; 125 g ai/ha): 20; Plant response rating, Foxtail, Giant ([15]; 500 g ai/ha): 40
O=C1NCC(c2cccc(COc3ccccc3)c2)C1C(=O)Nc1ccc(F)cc1F (stereo not drawn) [Compound 20] | 20 | 70 | 0 | 0 | 0 | 0 | 0 | 0 | 0 | 0 | 0 | 0 | 0 | 0 | 0 | 0 | 0 | 0 | 30 | 80 | Plant response rating, Barnyardgrass ([10]; 125 g ai/ha): 40; Plant response rating, Barnyardgrass ([10]; 500 g ai/ha): 70; Plant response rating, Kochia (kochia (Kochia scoparia) [11]; 125 g ai/ha): 0; Plant response rating, Kochia (kochia (Kochia scoparia) [11]; 500 g ai/ha): 30; Plant response rating, Kochia (kochia (Kochia scoparia) [12]; 125 g ai/ha): 0; Plant response rating, Kochia (kochia (Kochia scoparia) [12]; 500 g ai/ha): 0; Plant response rating, Wheat ([13]; 125 g ai/ha): 0; Plant response rating, Wheat ([13]; 500 g ai/ha): 0; Plant response rating, Blackgrass ([14]; 125 g ai/ha): 0; Plant response rating, Blackgrass ([14]; 500 g ai/ha): 0; Plant response rating, Foxtail, Giant ([15]; 125 g ai/ha): 40; Plant response rating, Foxtail, Giant ([15]; 500 g ai/ha): 60
O=C1NCC(c2cccc(COc3ccccc3)c2)C1C(=O)Nc1cccc(F)c1F (stereo not drawn) [Compound 21] | 0 | 40 | 0 | 0 | 0 | 0 | 0 | 0 | 0 | 0 | 0 | 0 | 0 | 0 | 0 | 0 | 0 | 0 | 20 | 60 | Plant response rating, Barnyardgrass ([10]; 125 g ai/ha): 20; Plant response rating, Barnyardgrass ([10]; 500 g ai/ha): 20; Plant response rating, Kochia (kochia (Kochia scoparia) [11]; 125 g ai/ha): 0; Plant response rating, Kochia (kochia (Kochia scoparia) [11]; 500 g ai/ha): 20; Plant response rating, Kochia (kochia (Kochia scoparia) [12]; 125 g ai/ha): 0; Plant response rating, Kochia (kochia (Kochia scoparia) [12]; 500 g ai/ha): 0; Plant response rating, Wheat ([13]; 125 g ai/ha): 0; Plant response rating, Wheat ([13]; 500 g ai/ha): 0; Plant response rating, Blackgrass ([14]; 125 g ai/ha): 0; Plant response rating, Blackgrass ([14]; 500 g ai/ha): 0; Plant response rating, Foxtail, Giant ([15]; 125 g ai/ha): 30; Plant response rating, Foxtail, Giant ([15]; 500 g ai/ha): 30
O=C1NCC(c2cccc(Cn3cccn3)c2)C1C(=O)Nc1ccc(F)c(F)c1F (stereo not drawn) [Compound 26] | 40 | 90 | 0 | 0 | 0 | 0 | 0 | 0 | 0 | 0 | 0 | 0 | 0 | 0 | 0 | 0 | 0 | 0 | 40 | 90 | Plant response rating, Barnyardgrass ([10]; 125 g ai/ha): 30; Plant response rating, Barnyardgrass ([10]; 500 g ai/ha): 70; Plant response rating, Kochia (kochia (Kochia scoparia) [11]; 125 g ai/ha): 0; Plant response rating, Kochia (kochia (Kochia scoparia) [11]; 500 g ai/ha): 0; Plant response rating, Kochia (kochia (Kochia scoparia) [12]; 125 g ai/ha): 0; Plant response rating, Kochia (kochia (Kochia scoparia) [12]; 500 g ai/ha): 0; Plant response rating, Wheat ([13]; 125 g ai/ha): 0; Plant response rating, Wheat ([13]; 500 g ai/ha): 0; Plant response rating, Blackgrass ([14]; 125 g ai/ha): 0; Plant response rating, Blackgrass ([14]; 500 g ai/ha): 0; Plant response rating, Foxtail, Giant ([15]; 125 g ai/ha): 30; Plant response rating, Foxtail, Giant ([15]; 500 g ai/ha): 60

Reference: patent US10405547B2, “Substituted cyclic amides as herbicides” (FMC Corporation, priority 2015, dated 2019)
